Values of other authors, collected in patent publication US8003690B2, “Topical nanoparticulate spironolactone formulation” (Jagotec AG, priority 2002, dated 2011).

solubility in water: 2.8 mg/100 ml
Compound: CC(=O)S[C@@H]1CC2=CC(=O)CC[C@]2(C)[C@H]2CC[C@@]3(C)[C@@H](CC[C@@]34CCC(=O)O4)[C@H]12 [Spironolactone]
